Reference: ChEMBL document CHEMBL1201862, “PubChem BioAssay data set” (2004)
Calls of active or inactive are those of the source.

Columns and labels:
Galanin receptor type 3 = target: T1, Galanin receptor type 3 (Homo sapiens, UniProt O60755); assay: Fluorescence-based cell-based primary high throughput dose response assay to identify antagonists of the Galanin Receptor 3 (GalR3).; assay type: functional
T1 sequence (O60755 whole entry): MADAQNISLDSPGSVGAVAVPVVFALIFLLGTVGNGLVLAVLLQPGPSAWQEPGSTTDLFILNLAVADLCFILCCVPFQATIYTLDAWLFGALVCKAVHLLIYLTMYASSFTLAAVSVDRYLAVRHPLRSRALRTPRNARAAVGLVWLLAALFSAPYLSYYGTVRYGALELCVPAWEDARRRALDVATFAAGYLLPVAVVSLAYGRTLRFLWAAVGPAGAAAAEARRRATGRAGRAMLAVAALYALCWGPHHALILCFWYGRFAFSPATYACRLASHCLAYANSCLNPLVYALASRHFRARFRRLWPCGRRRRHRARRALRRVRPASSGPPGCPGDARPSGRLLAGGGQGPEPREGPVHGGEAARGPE

cells = assay type: functional, cell-based; conditions: HEK-CNG
[1] = target: T2, Corticotropin-releasing factor receptor 2/Corticotropin-releasing factor-binding protein (Homo sapiens, UniProt P24387+Q13324); assay: Dose Response confirmation of uHTS hits for small molecule antagonists of the CRF-binding protein and CRF-R2 receptor complex.; assay type: functional; conditions: read-out: IC50_Mean
T2 sequence (Q13324 whole entry): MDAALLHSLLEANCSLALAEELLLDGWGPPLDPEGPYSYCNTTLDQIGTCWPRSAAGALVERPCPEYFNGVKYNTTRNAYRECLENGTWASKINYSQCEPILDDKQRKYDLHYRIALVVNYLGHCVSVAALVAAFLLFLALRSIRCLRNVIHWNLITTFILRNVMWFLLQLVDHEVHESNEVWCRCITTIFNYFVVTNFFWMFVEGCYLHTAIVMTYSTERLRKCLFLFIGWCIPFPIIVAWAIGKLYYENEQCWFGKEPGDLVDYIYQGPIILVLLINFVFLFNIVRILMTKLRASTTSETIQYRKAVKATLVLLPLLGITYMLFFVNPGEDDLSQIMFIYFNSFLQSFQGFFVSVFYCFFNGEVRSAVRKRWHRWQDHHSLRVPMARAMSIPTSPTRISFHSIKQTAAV
T2 sequence (P24387 whole entry): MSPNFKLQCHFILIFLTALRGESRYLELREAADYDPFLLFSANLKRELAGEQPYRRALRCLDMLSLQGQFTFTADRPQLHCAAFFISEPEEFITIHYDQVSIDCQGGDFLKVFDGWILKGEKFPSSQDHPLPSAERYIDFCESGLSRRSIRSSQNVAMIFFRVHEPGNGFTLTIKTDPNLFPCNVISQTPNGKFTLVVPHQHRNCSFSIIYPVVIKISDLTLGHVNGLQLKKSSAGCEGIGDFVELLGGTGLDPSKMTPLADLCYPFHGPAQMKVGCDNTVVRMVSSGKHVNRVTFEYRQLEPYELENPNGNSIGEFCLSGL

[2] = target: T2, Corticotropin-releasing factor receptor 2/Corticotropin-releasing factor-binding protein; assay: activators of CRF receptor 2 with binding protein – uHTS hits, confirmation (AID 602473); assay type: functional; conditions: read-out: EC50_Mean
[3] = blockers of CRF-binding protein–CRF-R2 complex – cell-based, uHTS hits, 384-well, dose response (AID 651639); assay type: functional, Homo sapiens; conditions: read-out: IC50_Mean
[4] = target: Photoreceptor-specific nuclear receptor (Homo sapiens, UniProt Q9Y5X4); assay type: functional, cell-based;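 also: CHO-S cells with Gal4-NCOR and VP16-NR2E3 two-hybrid luciferase reporter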
[5] = non-specific 3'UTR reporter inhibition in Clone20-Shn3RL – cell-based, Renilla luciferase, cherry-picked, counter-screen for Shn3 inhibitor project, dose response (AID 624133); assay type: functional
[6] = loss of viability in HepG2 cells – cell-based, CellTiter-Glo, cherry-picked, cytotoxicity control for Shn3 inhibitor project, dose response (AID 624134); assay type: functional
[7] = reduction of Shn3 3'UTR-driven luciferase in osteoblasts – cell-based, Clone20 osteoblasts, firefly luciferase, cherry-picked, dose response (AID 624132); assay type: functional;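 also: firefly luciferase luminescence from reporter carrying the Shn3 3'UTR in osteoblasts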
Nonstructural protein 1 = Nonstructural protein 1 (Influenza A virus, UniProt Q194T2); assay type: functional, Influenza A virus (A/California/07/2009(H1N1))
INS1 = assay: INS-1E survival protection against cytokine death – cell-based, luminescence, retest, dose response (AID 449756); assay type: functional; conditions: Rattus norvegicus;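 also: cell death triggered by IL-1 beta plus TNF-alpha plus IFN-gamma mixture; protective hits raise ATP signal compared with cytokine alone wells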
[8] = Luminescence Cell-Based Dose Retest to Confirm Inhibitors of Cancer Stem Cells. [Related pubchem assays (depositor defined):AID2717, AID2721]; assay type: functional; conditions: Homo sapiens
[9] = target: T3, Microphthalmia-associated transcription factor (Homo sapiens, UniProt O75030); assay: reducers of TRPM1 reporter luminescence, concentration series – cell-based, SK-MEL-5, cherry-picked, set 3, MITF inhibitor project, dose response (AID 493073); assay type: functional;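 also: SK-MEL-5 melanoma cells with luciferase driven by the MITF target TRPM1 promoter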
T3 sequence (O75030 whole entry): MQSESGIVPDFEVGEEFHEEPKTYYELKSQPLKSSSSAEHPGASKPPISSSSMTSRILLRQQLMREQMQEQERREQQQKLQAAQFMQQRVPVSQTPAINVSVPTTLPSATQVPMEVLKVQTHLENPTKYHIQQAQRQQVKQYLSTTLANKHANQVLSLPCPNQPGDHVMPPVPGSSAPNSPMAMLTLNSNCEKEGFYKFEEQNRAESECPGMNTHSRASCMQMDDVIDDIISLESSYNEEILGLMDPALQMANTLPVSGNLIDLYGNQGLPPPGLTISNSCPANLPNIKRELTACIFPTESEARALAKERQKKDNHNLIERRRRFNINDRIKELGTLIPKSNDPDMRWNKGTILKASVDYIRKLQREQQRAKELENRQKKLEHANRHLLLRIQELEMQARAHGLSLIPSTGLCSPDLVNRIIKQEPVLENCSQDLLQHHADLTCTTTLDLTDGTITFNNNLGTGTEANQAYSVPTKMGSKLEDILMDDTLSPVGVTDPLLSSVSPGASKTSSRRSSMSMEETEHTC

[10] = toxicity toward HepG2 liver cells – cell-based, plate reader, cherry-pick, antagonist series, cytotoxicity control, dose response (AID 743416); assay type: functional
[11] = A549 cell cytotoxicity, dose response, cytotoxicity control, plate reader, cherry-pick, antagonist series (AID 743412); assay type: functional, cell-based
A-375 = assay: MITF: Counter assay: A375 proliferation Measured in Cell-Based System Using Plate Reader - 2084-03_Inhibitor_Dose_DryPowder_Activity. [Related pubchem assays (depositor defined):AID488944]; assay type: functional; conditions: Homo sapiens
[12] = target: T4, Carboxy-terminal domain RNA polymerase II polypeptide A small phosphatase 1 (Homo sapiens, UniProt Q9GZU7); assay: CTDSP1 inhibitors, concentration-response, biochemical, absorbance readout, ultra-high-throughput screen actives (AID 540297); assay type: functional
T4 sequence (Q9GZU7 whole entry): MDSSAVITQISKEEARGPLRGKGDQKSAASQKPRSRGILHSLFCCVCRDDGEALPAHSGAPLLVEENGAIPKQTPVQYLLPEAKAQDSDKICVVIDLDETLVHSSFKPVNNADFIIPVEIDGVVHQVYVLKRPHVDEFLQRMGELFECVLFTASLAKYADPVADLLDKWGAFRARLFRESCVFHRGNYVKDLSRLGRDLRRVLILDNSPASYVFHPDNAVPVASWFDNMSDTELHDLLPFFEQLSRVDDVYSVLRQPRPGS

Vero = assay: cells; assay type: functional; conditions: Chlorocebus sabaeus

Sequence of Photoreceptor-specific nuclear receptor (Q9Y5X4 whole entry, the tested form may be a part): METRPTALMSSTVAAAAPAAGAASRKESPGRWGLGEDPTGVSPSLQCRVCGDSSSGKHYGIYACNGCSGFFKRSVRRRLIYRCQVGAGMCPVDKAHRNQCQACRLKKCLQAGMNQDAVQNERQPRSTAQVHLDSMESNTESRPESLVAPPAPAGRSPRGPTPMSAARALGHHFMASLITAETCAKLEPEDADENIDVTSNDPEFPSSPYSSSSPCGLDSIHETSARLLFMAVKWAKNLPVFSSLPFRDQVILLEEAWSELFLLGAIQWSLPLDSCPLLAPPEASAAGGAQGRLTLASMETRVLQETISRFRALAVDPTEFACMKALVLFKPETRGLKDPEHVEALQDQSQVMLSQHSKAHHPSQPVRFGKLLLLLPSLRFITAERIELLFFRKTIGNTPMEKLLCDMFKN
Sequence of Nonstructural protein 1 (Q194T2 whole entry): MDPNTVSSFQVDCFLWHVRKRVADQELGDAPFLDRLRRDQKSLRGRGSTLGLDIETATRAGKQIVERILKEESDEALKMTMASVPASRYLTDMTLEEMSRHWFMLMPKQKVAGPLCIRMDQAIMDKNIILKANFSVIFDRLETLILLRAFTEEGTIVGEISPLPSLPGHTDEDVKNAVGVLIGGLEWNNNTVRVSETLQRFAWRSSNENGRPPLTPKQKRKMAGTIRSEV

In the case of `CSc1ccc(C(=O)C2CCCN(C(=O)CCc3c(C)nn(C)c3C)C2)cc1` (centres undefined), the IC50 (Galanin receptor type 3) is reported as 1.15 µM (active) and the EC50 (cells) is reported as > 29.9 µM (inactive).

For `Fc1ccccc1CSc1nnnn1-c1ccc2c(c1)OCO2`, the IC50 [1] was 15.6 µM (active), the EC50 [2] was > 53 µM (inactive) and the IC50 [3] was > 20 µM (inactive).

With `Clc1cc2cccnc2c2ncccc12` the IC50 [4] was 5.53 µM (active), the AC50 [5] was 3.94 µM (active) and the AC50 [6] was 5.34 µM (active). For the same compound, the AC50 [7] was 4.06 µM (active), the IC50 (Nonstructural protein 1) was 3.44 µM (active) and the AC50 (INS1) was 6.84 µM (active). For the same compound, the AC50 [8] was 4.73 µM (active).

For `CN(C(=O)Oc1ccc(C(=O)c2ccc(Cl)cc2)cc1)c1ccccc1`, the IC50 [1] was < 0.368 µM (active), the EC50 [2] was > 53 µM (inactive) and the IC50 [3] was > 20 µM (inactive).

In the case of `FC(F)(F)c1ccccc1Cc1c(-c2ccco2)nc2c3ccccc3ccn12`, the IC50 (Galanin receptor type 3) is reported as 13 µM (inactive) and the EC50 (cells) is reported as > 29.9 µM (inactive).

For `COC(=O)c1ccc(Nc2cc(C)nc3ccc(C)cc23)cc1`, the AC50 [9] was 6.85 µM (active), the AC50 [10] was 13.2 µM (active) and the AC50 [11] was 4.31 µM (active). For the same compound, the AC50 (A-375) was 36.8 µM (active).

In the case of `O=C(CNC(=O)c1cccc(OC(F)F)c1)OCc1cc(=O)n2cc(Br)ccc2n1`, the IC50 [12] is reported as 7.09 µM (active).

For `CCOC(=O)c1cc2c(=O)n3cccc(C)c3nc2n(Cc2ccco2)/c1=N/C(=O)c1cccnc1`, the IC50 [12] was 18.8 µM (active).

For `CCOc1ccc(-n2c(SCC(=O)NCc3ccco3)nc3c4ccccc4nc-3c2O)cc1`, the IC50 [1] was 3.76 µM (active), the EC50 [2] was > 53 µM (inactive) and the IC50 [3] was 15 µM (active).

With `COc1ccc(C)cc1NC(=O)NC1CC(=O)N(c2ccc3c(c2)OCCO3)C1` (centres undefined) the IC50 [4] was 3.25 µM (active).

With `CCc1cc(OCCCSc2nc(C)cc(O)n2)ccc1Cl` the IC50 [4] was 3.02 µM (active) and the CC50 (Vero) was 2.36 µM (active).
